From the supplement of paper PMC6045584
± gives the standard deviation of the averaged measurements.

Tests used:
ERLOTINIB = compound: C#Cc1cccc(Nc2ncnc3cc(OCCOC)c(OCCOC)cc23)c1 [ERLOTINIB]; assay: surviving fraction relative to DMSO-only wells; higher = less growth inhibition; details: exposure time: 5 days
Outline: (§1)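 Continuous five-day exposure to inhibitors at 0.5, 1, 5, 10, 50, 100, 500 and 1000 nM started 24 hours after log-phase tumour cell lines were seeded at 250–500 cells per well in 384-well plates. Luminescence was read after 10 minutes at room temperature. Viability is given as surviving fraction, meaning CellTiter-Glo luminescence normalised to the median of DMSO-only wells.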

VINORELBINE = compound: CCC1=C[C@@H]2CN(C1)Cc1c([nH]c3ccccc13)[C@@](C(=O)OC)(c1cc3c(cc1OC)N(C)[C@H]1[C@@](O)(C(=O)OC)[C@H](OC(C)=O)[C@]4(CC)C=CCN5CC[C@]31[C@@H]54)C2 [VINORELBINE]; assay: as above; details: exposure time: 5 days
Outline: as §1

| Test System | surviving fraction (ERLOTINIB; 0.5 nM) | surviving fraction (ERLOTINIB; 1 nM) | surviving fraction (ERLOTINIB; 5 nM) | surviving fraction (ERLOTINIB; 10 nM) | surviving fraction (ERLOTINIB; 50 nM) | surviving fraction (ERLOTINIB; 100 nM) | surviving fraction (ERLOTINIB; 500 nM) | surviving fraction (ERLOTINIB; 1000 nM) | surviving fraction (VINORELBINE; 0.5 nM) | surviving fraction (VINORELBINE; 1 nM) | surviving fraction (VINORELBINE; 5 nM) | surviving fraction (VINORELBINE; 10 nM) | surviving fraction (VINORELBINE; 50 nM) | surviving fraction (VINORELBINE; 100 nM) | surviving fraction (VINORELBINE; 500 nM) | surviving fraction (VINORELBINE; 1000 nM) |
| --- | --- | --- | --- | --- | --- | --- | --- | --- | --- | --- | --- | --- | --- | --- | --- | --- |
| HU09 BONE | 1.08 ± 0.11 | 0.986 ± 0.073 | 1.12 ± 0.073 | 1.04 ± 0.1 | 1.11 ± 0.029 | 1.1 ± 0.024 | 1.04 ± 0.061 | 0.965 ± 0.062 | 1.09 ± 0.035 | 1.02 ± 0.11 | 0.981 ± 0.1 | 0.558 ± 0.071 | 0.124 ± 0.015 | 0.0583 ± 0.0064 | 0.0547 ± 0.004 | 0.0747 ± 0.0045 |
| JIMT1 BREAST | 1 ± 0.012 | 0.994 ± 0.044 |  | 0.9948 ± 0.0084 | 1 ± 0.015 | 1.02 ± 0.076 | 0.809 ± 0.025 | 0.731 ± 0.031 | 0.955 ± 0.036 | 0.9598 ± 0.0091 | 0.512 ± 0.025 | 0.304 ± 0.03 | 0.127 ± 0.011 | 0.117 ± 0.0056 | 0.113 ± 0.0063 | 0.11 ± 0.0053 |
| JURKAT HAEMATOPOIETIC AND LYMPHOID TISSUE | 1.05 ± 0.025 |  | 1.05 ± 0.037 | 1.03 ± 0.041 | 0.989 ± 0.035 | 1.01 ± 0.015 | 0.988 ± 0.015 | 1.01 ± 0.038 | 1.07 ± 0.02 | 1.066 ± 0.0099 | 0.952 ± 0.041 | 0.168 ± 0.034 | 0.0297 ± 0.00058 | 0.0247 ± 0.00058 | 0.025 | 0.0233 ± 0.00058 |
| KPD BONE | 1.07 ± 0.11 | 1.03 ± 0.042 | 1.06 ± 0.076 | 1.07 ± 0.075 | 1.18 ± 0.035 | 1.11 ± 0.035 | 1.07 ± 0.11 | 1.05 ± 0.096 | 0.953 ± 0.04 | 0.915 ± 0.055 | 0.96 ± 0.087 | 0.839 ± 0.093 | 0.5 ± 0.011 | 0.457 ± 0.035 | 0.445 ± 0.011 | 0.383 ± 0.026 |
| LM7 BONE | 1.09 ± 0.1 | 0.989 ± 0.043 | 1.2 ± 0.043 | 1.06 ± 0.051 | 1.23 ± 0.061 | 1.15 ± 0.098 | 0.932 ± 0.058 |  | 0.973 ± 0.062 | 0.9683 ± 0.0047 | 0.757 ± 0.023 | 0.499 ± 0.062 | 0.115 ± 0.0052 | 0.105 ± 0.0081 | 0.0943 ± 0.011 | 0.122 ± 0.013 |
| MCF7 BREAST | 0.942 ± 0.022 | 0.9629 ± 0.007 | 0.993 ± 0.044 | 0.953 ± 0.053 | 1.084 ± 0.0061 | 1.03 ± 0.018 | 1.03 ± 0.042 |  | 0.932 ± 0.027 | 0.914 ± 0.025 | 0.861 ± 0.058 | 0.817 ± 0.022 | 0.466 ± 0.017 | 0.428 ± 0.027 | 0.357 ± 0.0083 | 0.221 ± 0.018 |
| MDAMB134 BREAST |  | 0.92 ± 0.024 | 0.899 ± 0.018 | 0.91 ± 0.059 | 1.13 ± 0.033 | 1.15 ± 0.17 |  | 1.08 ± 0.088 | 0.97 ± 0.1 | 0.842 ± 0.025 | 0.751 ± 0.072 | 0.691 ± 0.082 | 0.728 ± 0.016 | 0.708 ± 0.05 | 0.69 ± 0.085 | 0.767 ± 0.091 |
| MDAMB157 BREAST | 0.981 ± 0.071 | 0.985 ± 0.11 |  | 0.998 ± 0.056 | 0.97 ± 0.091 | 1.04 ± 0.018 | 0.999 ± 0.073 |  | 0.915 ± 0.076 | 0.872 ± 0.076 | 0.748 ± 0.084 | 0.465 ± 0.045 | 0.11 ± 0.026 | 0.0867 ± 0.013 | 0.0783 ± 0.015 | 0.12 ± 0.025 |
| MDAMB231 BREAST | 1.01 ± 0.028 | 0.997 ± 0.013 | 1.02 ± 0.019 | 1.02 ± 0.011 | 1.04 ± 0.019 | 1.06 ± 0.027 | 1.06 ± 0.028 | 1.03 ± 0.029 | 0.976 ± 0.035 | 0.998 ± 0.02 | 0.904 ± 0.027 | 0.681 ± 0.027 | 0.238 ± 0.008 | 0.244 ± 0.0099 | 0.189 ± 0.0019 | 0.172 ± 0.009 |
| MDAMB361 BREAST | 0.873 ± 0.095 | 0.849 ± 0.05 | 0.83 ± 0.037 | 0.869 ± 0.011 |  |  | 0.913 ± 0.091 | 0.827 ± 0.033 | 0.791 ± 0.062 | 0.786 ± 0.076 | 0.695 ± 0.056 | 0.603 ± 0.016 | 0.607 ± 0.03 | 0.566 ± 0.04 | 0.5787 ± 0.0021 | 0.502 ± 0.058 |
| MDAMB436 BREAST | 0.987 ± 0.03 | 1.08 ± 0.073 | 1.07 ± 0.091 | 1.05 ± 0.15 | 1.05 ± 0.14 | 0.941 ± 0.049 | 0.932 ± 0.066 | 0.811 ± 0.045 | 0.9 ± 0.064 | 0.88 ± 0.045 | 0.796 ± 0.12 | 0.742 ± 0.038 | 0.591 ± 0.032 | 0.51 ± 0.033 | 0.211 ± 0.013 | 0.221 ± 0.018 |
